Ten compounds from patent US6890920B2, “Quaternary ammonium compounds” (Pharmacia & Upjohn Company, priority 1992, dated 2005) can be followed below.

pKi: −log10 of the molar value. Read-outs that look alike come from different tables or passages of the source.

Data set [1] concerns the target T1, muscarinic receptor M1 (Homo sapiens, UniProt P11229).
T1 construct: expressed in transfected cells
T1 sequence (P11229 1-460): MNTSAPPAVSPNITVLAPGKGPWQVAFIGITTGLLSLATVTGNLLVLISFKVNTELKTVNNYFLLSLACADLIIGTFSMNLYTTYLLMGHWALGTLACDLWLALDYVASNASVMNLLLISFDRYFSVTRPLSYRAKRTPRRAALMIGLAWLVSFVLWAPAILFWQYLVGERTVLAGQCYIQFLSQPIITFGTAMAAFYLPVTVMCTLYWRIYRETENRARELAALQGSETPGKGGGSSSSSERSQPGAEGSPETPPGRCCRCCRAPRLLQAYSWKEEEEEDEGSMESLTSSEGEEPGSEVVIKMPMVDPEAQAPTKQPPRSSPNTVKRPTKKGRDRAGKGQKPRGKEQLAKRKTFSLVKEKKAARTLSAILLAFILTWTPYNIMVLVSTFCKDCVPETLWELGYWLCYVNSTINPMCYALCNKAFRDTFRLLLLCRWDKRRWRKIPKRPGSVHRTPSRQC
Description: Muscarinic receptor subtype M1 binding assay, radioligand displacement. The method, then: (§1) Muscarinic receptor subtype M1-M5 binding assays were carried out. Briefly, [3]H-methylscopolamine was allowed to bind to membranes from various recombinant mammalian cell lines, each with an over-expression of a particular receptor subtype.
(§2) Muscarinic receptor subtype M1-M5 binding assays were performed.
On the technique in general: Displacement assays read how much labelled ligand stays bound in the presence of the test substance.

The target of data set [2] is T2, muscarinic receptor M2 (Homo sapiens, UniProt P08172).
T2 construct: expressed in transfected cells
T2 sequence (P08172 1-466): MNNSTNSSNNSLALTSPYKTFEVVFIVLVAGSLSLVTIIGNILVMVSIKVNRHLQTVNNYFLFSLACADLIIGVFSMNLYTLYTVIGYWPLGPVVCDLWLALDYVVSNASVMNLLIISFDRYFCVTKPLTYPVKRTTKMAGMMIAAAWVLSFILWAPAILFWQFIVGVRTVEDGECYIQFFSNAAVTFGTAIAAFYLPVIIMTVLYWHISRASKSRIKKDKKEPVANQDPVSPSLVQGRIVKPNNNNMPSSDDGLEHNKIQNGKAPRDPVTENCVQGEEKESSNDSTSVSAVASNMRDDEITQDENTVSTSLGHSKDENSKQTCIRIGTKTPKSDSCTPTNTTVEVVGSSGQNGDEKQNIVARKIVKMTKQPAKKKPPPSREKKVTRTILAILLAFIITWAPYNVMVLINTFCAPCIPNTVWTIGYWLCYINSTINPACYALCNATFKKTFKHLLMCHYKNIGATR
Description: Muscarinic receptor subtype M2 binding assay, radioligand displacement. Conditions: [3]H-methylscopolamine displacement, membranes from recombinant mammalian cell lines. How it is done: as §1, §2

The target of data set [3] is T3, muscarinic receptor M3 (Homo sapiens, UniProt P20309).
T3 construct: expressed in transfected cells
Kind of data set: Muscarinic receptor subtype M3 binding assay, radioligand displacement. Particulars: [3]H-methylscopolamine displacement, membranes from recombinant mammalian cell lines; read-out: Ki values, receptor subtype M3. The method, then:
as §1, §2

Data set [4] deals with T4, muscarinic receptor M4 (Homo sapiens, UniProt P08173).
T4 construct: expressed in transfected cells
T4 sequence (P08173 1-479): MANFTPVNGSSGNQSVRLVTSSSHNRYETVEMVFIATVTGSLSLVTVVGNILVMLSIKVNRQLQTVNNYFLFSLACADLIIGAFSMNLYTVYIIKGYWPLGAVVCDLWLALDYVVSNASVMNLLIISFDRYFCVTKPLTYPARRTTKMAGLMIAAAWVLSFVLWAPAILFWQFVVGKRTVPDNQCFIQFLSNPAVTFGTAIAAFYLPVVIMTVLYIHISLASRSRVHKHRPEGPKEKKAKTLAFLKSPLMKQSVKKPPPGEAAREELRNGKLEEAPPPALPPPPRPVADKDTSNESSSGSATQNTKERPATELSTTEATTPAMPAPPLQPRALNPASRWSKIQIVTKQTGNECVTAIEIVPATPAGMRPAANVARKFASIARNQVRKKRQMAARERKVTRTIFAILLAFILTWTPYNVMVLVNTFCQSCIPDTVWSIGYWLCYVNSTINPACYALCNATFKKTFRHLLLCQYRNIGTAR
Kind of data set: Muscarinic receptor subtype M4 binding assay, radioligand displacement. Particulars: [3]H-methylscopolamine displacement, membranes from recombinant mammalian cell lines. The method, then:
as §1, §2

The target of data set [5] is T5, muscarinic receptor M5 (Homo sapiens, UniProt P08912).
T5 construct: expressed in transfected cells
T5 sequence (P08912 1-532): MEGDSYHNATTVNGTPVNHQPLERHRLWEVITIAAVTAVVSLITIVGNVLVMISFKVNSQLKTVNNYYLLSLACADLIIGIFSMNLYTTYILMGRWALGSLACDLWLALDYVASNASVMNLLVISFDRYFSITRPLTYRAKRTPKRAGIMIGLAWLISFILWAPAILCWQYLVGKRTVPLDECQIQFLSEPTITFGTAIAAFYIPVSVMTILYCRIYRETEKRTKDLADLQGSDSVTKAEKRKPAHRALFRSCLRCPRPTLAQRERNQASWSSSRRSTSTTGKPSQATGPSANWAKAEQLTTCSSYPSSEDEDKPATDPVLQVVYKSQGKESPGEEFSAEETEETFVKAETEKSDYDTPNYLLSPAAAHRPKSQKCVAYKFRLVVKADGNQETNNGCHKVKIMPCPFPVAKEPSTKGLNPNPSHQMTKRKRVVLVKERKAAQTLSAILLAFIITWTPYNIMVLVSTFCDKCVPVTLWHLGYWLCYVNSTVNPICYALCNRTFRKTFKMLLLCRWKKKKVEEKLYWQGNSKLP
Description: Muscarinic receptor subtype M5 binding assay, radioligand displacement. Particulars: [3]H-methylscopolamine displacement, membranes from recombinant mammalian cell lines; read-out: Ki values, receptor subtype M5. How it is done:
as §1, §2

In data set [6] the test system is methacholine-induced bronchoconstriction in Balb/c mice. Kind of data set: Bronchodilatory effect of inhaled compounds, Example VIII (% inhibition). Particulars: inhalation of 1 mg/mL FBE; for % inhibition of bronchoconstriction after 10 min: 10 min after dosing; for % inhibition of bronchoconstriction after 36 h: 36 h after dosing. In kind it is in vivo. From the text: Bronchoconstriction was induced in BALB/c mice by administration of methacholine.

Data set [7] can be described thus: Pharmacokinetics of inhaled tolterodine, plasma levels. In kind it is in vivo, Balb/c mice. Conditions: FIG. 7. The method, then:
Blood samples were collected at 2.5 minutes, 15 minutes, 30 minutes, 1 hour or 2 hours after aerosol drug treatment. Blood samples were prepared as in example VI. Samples were analyzed using a PE SCIEX API 3000 mass spectrometer. Chromatographically, the analyte and the internal standard were resolved on a Zorbax ACE Phenyl column using a gradient elution. The limit of quantitation was 100 pg/mL.

Where [8] appears, read: [3]H-methylscopolamine displacement, membranes from recombinant mammalian cell lines.

T3 sequence (P20309 whole entry): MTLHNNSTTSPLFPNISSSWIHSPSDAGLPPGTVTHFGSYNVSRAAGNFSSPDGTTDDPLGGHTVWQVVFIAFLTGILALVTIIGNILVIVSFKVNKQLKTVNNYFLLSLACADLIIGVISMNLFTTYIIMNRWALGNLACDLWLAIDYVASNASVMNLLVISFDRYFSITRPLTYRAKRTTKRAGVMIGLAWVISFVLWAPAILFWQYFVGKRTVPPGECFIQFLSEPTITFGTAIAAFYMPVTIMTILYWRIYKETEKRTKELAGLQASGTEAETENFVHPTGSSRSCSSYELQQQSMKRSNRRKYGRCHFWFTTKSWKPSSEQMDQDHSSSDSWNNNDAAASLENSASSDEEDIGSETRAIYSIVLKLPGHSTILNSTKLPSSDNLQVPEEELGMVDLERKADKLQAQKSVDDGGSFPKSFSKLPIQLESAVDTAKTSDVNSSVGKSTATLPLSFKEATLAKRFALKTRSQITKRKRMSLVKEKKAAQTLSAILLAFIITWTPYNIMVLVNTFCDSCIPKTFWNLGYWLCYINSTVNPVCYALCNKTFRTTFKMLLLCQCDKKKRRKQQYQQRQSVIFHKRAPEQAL

For orientation: pKi means −log10 of the Ki, conventionally taken in molar units. For `Cc1ccc(O)c(C(CC[N+]2(C)CCCC2)c2ccccc2)c1.[I-]` (centres unmarked) [Example 31, 1-[3-(2-Hydroxy-5-Methylphenyl)-3-phenylpropyl]-1-methylpyrrolidinium iodide], the pKi was 8.92 in data set [1] (setting [8]); 8.66 in data set [2]; 8.48 in data set [3]; 8.38 in data set [4]; 8.80 in data set [5]. In addition, in data set [6], the “% inhibition of bronchoconstriction after 10 min” value (“% inhibition … after 10 min” for short) stood at 100%. The “% inhibition of bronchoconstriction after 36 h” value (“% inhibition … after 36 h” below) in data set [6] worked out at 0%.
With `CC[N+]1(CCC(c2ccccc2)c2cc(C)ccc2O)CCCC1.[I-]` (centres unmarked) [Example 32, 1-Ethyl-1-(3-(2-hydroxy-5-methylphenyl)-3-phenylpropyl]pyrrolidinium iodide], the pKi in data set [1] (setting [8]) is 8.96; in data set [2], 8.77; in data set [3] it was 8.51; in data set [4], 8.42; in data set [5], 8.92. In addition, the “% inhibition … after 10 min” value in data set [6] was 100%. In addition, the “% inhibition … after 36 h” value in data set [6] was 17%.
On to `CC(C)[N+](C)(CC[C@H](c1ccccc1)c1cc(CO)ccc1O)C(C)C.[I-]` [Example 8, (3R)-3-[2-Hydroxy-5-(hydroxymethyl)phenyl]-N,N-diisopropyl-N-methyl-3-phenylpropan-1-aminium iodide], for which the pKi is 9.07 in data set [1] (setting [8]); 8.97 in data set [2]; 9.04 in data set [3]; 8.97 in data set [4]; 9.17 in data set [5]. Further, in data set [6], the “% inhibition … after 10 min” value was found to be 82%. For the same compound, the “% inhibition of bronchoconstriction after 24 h” value in data set [6] (24 h after dosing) amounted to 60%. The “% inhibition of bronchoconstriction after 48 h” value in data set [6] (48 h after dosing) amounted to 15%.
For the compound `Cc1ccc(O)c(C(CC[N+]2(C)CCCCCC2)c2ccccc2)c1.[I-]` (centres unmarked) [Example 34, 1-[3-(2-Hydroxy-5-methylphenyl)-3-phenylpropyl]-1-methylazepanium iodide], the pKi in data set [1] (setting [8]) was 9.00; in data set [2], 9.00; in data set [3] it was 8.33; in data set [4], 8.54; in data set [5] it was 8.74. In data set [6], the “% inhibition … after 10 min” value was found to be 100%. In data set [6], the “% inhibition … after 36 h” value is on record as 0%.
Broadly, the melting point is the temperature, or range, at which the solid turns liquid. For `COc1ccc(C)cc1[C@H](CC[N+](C)(C(C)C)C(C)C)c1ccccc1.[I-]` [Example 20, (3R)-N,N-diisopropyl-3-(2-methoxy-5-methylphenyl)-N-methyl-3-phenylpropan-1-aminium iodide], the melting point is 211 °C (dec.).
On to `Cc1ccc(O)c([C@H](CCN(C(C)C)C(C)C)c2ccccc2)c1` [Tolterodine, 2-[(1R)-3-(diisopropylamino)-1-phenylpropyl]-4-methylphenol, reference compound], for which the figures for the pKi in data set [1], in data set [4] and in data set [5] were 9.06, 8.82 and 9.26, respectively. Moreover, the Plasma levels entry in data set [7] (inhalation of nebulized solution at 0.1 mg/ml, limit of quantitation 100 pg/mL) is listed as “at or below detection limits”. The “absorption into the circulation” value in data set [7] (inhalation of nebulized solutions at 0.1, 0.5 or 1.0 mg/ml) is “rapidly absorbed into the circulation”.
As to `CCCC(=O)Oc1ccc(C)cc1[C@H](CC[N+](C)(C(C)C)C(C)C)c1ccccc1.[I-]` [Example 21, (3R)-3-[2-(Butyryloxy)-5-methylphenyl]-N,N-diisopropyl-N-methyl-3-phenylpropan-1-aminium iodide], the melting point is 175 °C (dec.).
Turning to `Cc1ccc(O)c([C@H](CC[N+](C)(C(C)C)C(C)C)c2ccccc2)c1.[Br-]` [Example 3], the melting point was 189 to 191 °C (dec.). In data set [1] (setting [8]), the pKi was 9.52. For the same compound, in data set [2], the pKi was 9.28. The pKi in data set [3] was 9.37. Besides, the pKi in data set [4] was 9.14. Also, the negative logarithm of the Ki (pKi) in data set [5] was 9.59. Moreover, in data set [6], the “% inhibition … after 10 min” value worked out at 100% and the “% inhibition … after 36 h” value was 93%.
`Cc1ccc(O)c(C(CC[N+]2(C)CCCCC2)c2ccccc2)c1.[I-]` (centres unmarked) [Example 33, 1-[3-(2-Hydroxy-5-methylphenyl)-3-phenylpropyl]-1-methylpiperidinium iodide]: the pKi in data set [1] (setting [8]) was 8.96; in data set [2], 8.77; in data set [3] it was 8.49; in data set [4], 8.44; in data set [5] it was 9.05. For the same compound, the “% inhibition … after 10 min” value in data set [6] is 100%. Further, in data set [6], the “% inhibition … after 36 h” value is given as 0%.
Consider `CC(C)N(CC[C@H](c1ccccc1)c1cc(CO)ccc1O)C(C)C` [Hydroxytolterodine, 2-[(1R)-3-(diisopropylamino)-1-phenylpropyl]-4-(hydroxymethyl)phenol, reference compound], for which the pKi is 8.82 in data set [1] (setting [8]); 9.48 in data set [2]; 8.85 in data set [3]; 8.85 in data set [4]; 9.32 in data set [5].
